# According to patent US20020173549A1, “Compositions and methods for treatment of mild cognitive impairment” (priority 2000, published 2002):
# Experiments:
# APP holoprotein = experiment: Cell-associated APP holoprotein in cultured astrocytes (Western blot); format: cell-based, rat; set-up: basal APPh levels (compound by itself): unit of the concentration uncertain
# Experimental: (§1) Astrocytes are isolated from cortices from postnatal rats by methods standard in the art. In brief, dissected cortices are dissociated by trypsinization and trituration through a flame-polished Pasteur pipette. Cells are plated onto poly-L-lysine coated 35- or 100 mm culture dishes at densities of about 10-25 cells/mm^2. The initial culture media, minimal essential medium (MEM, Gibco) containing 10% horse serum (BioWhittaker), are aspirated after 2-5 h after plating to remove unattached cells and debris, and replaced with MEM containing 7.5% fetal bovine serum (FBS, BioWhittaker). Half the media is replaced with MEM/7.5% FBS twice weekly. Cells are kept at 37° C. in a humidified 5% CO2/95% air incubator. Media are changed twice weekly. […] Pharmacological manipulations are performed in serum-free media on 7-14 DIV confluent astrocytes.
# To detect cell-associated proteins (APP or GFAP), astrocytes from 35 mm dishes are scraped into lysis buffer (60 mm Tris/HCl, 4% SDS, 20% glycerol, 1 mm dithiothreitol), ultrasonicated and boiled for […]. The total amount of cell protein per dish, estimated using the bicinchoninic acid assay, is not altered by pharmacological treatments. Bromphenol blue (0.1%) is added to each sample and equal amounts of protein ([…]) are loaded on 10% SDS polyacrylamide gels.
# The amount of media or cell protein loaded for sodium dodecyl sulfate-polyacrylamide gel electrophoresis (10-20% SDS PAGE; Bio-Rad) is normalized for the amount of protein per sample. Proteins (equivalent to 100 μg cell protein/lane) are separated by electrophoresis, electroblotted onto polyvinylidene difluoride membranes (Immobilon-P, Millipore) and blocked in Tris-buffered saline with 0.15% Tween 20 (TEST) containing 5% powdered milk for 30 min. After 2×10 mm rinses in TBST, the membranes are incubated in TEST containing an appropriate antibody. Monoclonal antibodies 22C11 and GFAP (both from Boehringer Mannheim) are used to detect the N-terminus of APP and glial fibrillary acidic protein respectively; antisera R37 and R98 (gifts of Dr. F. Kametani, Tokyo Institute of Psychiatry) are used to detected the C-terminus and KPI motifs of APP respectively; antiserum C8 (gift of Dr. D. Selkoe, Women's Hospital, Harvard Medical School, Cambridge, Mass.) is used to detect the C-terminus of APP.
# After an overnight incubation, membranes are rinsed in TBST then treated for 1 h with a peroxidase-linked secondary antibody. After several rinses in TEST, protein bands are visualized on Kodak X-AR films by an enhanced chemiluminescence method (Amersham). Optical densities of the protein bands are quantitated by laser scanning densitometry (LICE, Bromma, Sweden), and normalized to the densities of those bands generated under control conditions.
# Measurements of cellular and secreted proteins, or of mRNA in treatment groups are normalized against those of control groups which are prepared in parallel and loaded onto the same blot. Analysis of variance (ANOVA) and t-tests are used to evaluate differences between groups (significance level, p=0.05), using drug treatments as the independent variable.
# cAMP = experiment: PGE2-induced cAMP increases in 10-day old rat cortical neurons; format: cell-based; set-up: effect on basal cAMP levels: unit of the concentration uncertain; conditions: for effect on basal cAMP levels: no PGE2, cortical neurons; for effect on PGE2-stimulated cAMP levels: cortical neurons
# Experimental: FIG. 5. Effect of Cannabinoids on Prostaglandin E2-Induced cAMP Increases in 10-Day Old Rat Cortical Neurons.
# Levels of cyclic AMP are measured with an [8-^3H]-cAMP assay kit (Amersham TRK 432) in astrocytes grown on 35 mm dishes. In brief, after aspirating the medium and rinsing twice with 1 ml ice cold PBS, the cells are scraped in 0.8 mL ice cold ethanol and sonicated. The cell suspension is incubated for […] at room temperature, centrifuged and the supernatant is dried in a rotary evaporator. After resuspension in 120 μL Tris/EDTA buffer, two duplicate samples of 50 μl each are mixed with the binding protein, [8-^3H] adenosine 3′,5′-cyclic phosphate tracer and incubated at 2-4° C. for 2 h. A charcoal suspension (100 μL) is added to the samples before centrifugation and 200 μL of the supernatant is removed for scintillation counting. The amount of cyclic AMP (pmol/mg protein) is estimated by comparing to known standards, and normalized to the amounts of whole cell protein as determined by the bicinchoninic acid assay (Sigma).
# Referring now to FIG. 5, cell cultures of 10-day old cortical neurons are used to assess the affect of anandamide (50 M), methanandamide (10 M), and 2-AG (50 M) on PGE2-stimulated cAMP levels. PGE2 (50 M) is found to elevate cAMP levels about 1.6-fold over basal (control).
# APP mRNA = APP mRNA levels in cultured astrocytes (Northern blot); format: cell-based, rat; conditions: 1, 10 or 100 μM, 24 h
# Experimental: as §1
# Total RNA from astrocytes grown on 100 mm dishes is extracted by the acid guanidium thiocyanate-phenol chloroform method. […] The levels of APP mRNA are normalized to the amounts of G3PDH mRNA and expressed as a ratio to the levels of untreated, control cells.
# Confluent monolayers of astrocytes prepared according to Example 8.1 are treated with serum-free media containing 50, 100, or 250 μM 8Br-cAMP for varying durations (1 h, 6 h, 12 h, or 24 h). Levels of cAMP in astrocytes are measured with a [8-^3H]-cAMP assay kit (Amersham TRK 432).
# soluble APP (APPs) = experiment: Secreted soluble APP in astrocyte culture media (Western blot); format: cell-based, rat; conditions: astrocytes
# Experimental: as §1
# To detect secreted APP, culture media is collected after drug treatments and phenylmethylsulfonyl fluoride is added to a final concentration of 2 mM. The media samples are then applied to Sephadex PD-b desalting columns (Pharmacia) and eluted with distilled water. […]
# The amount of media or cell protein loaded for sodium dodecyl sulfate-polyacrylamide gel electrophoresis (10-20% SDS PAGE; Bio-Rad) is normalized for the amount of protein per sample. […] Monoclonal antibodies 22C11 and GFAP (both from Boehringer Mannheim) are used to detect the N-terminus of APP and glial fibrillary acidic protein respectively; antisera R37 and R98 (gifts of Dr. F. Kametani, Tokyo Institute of Psychiatry) are used to detected the C-terminus and KPI motifs of APP respectively; antiserum C8 (gift of Dr. D. Selkoe, Women's Hospital, Harvard Medical School, Cambridge, Mass.) is used to detect the C-terminus of APP.
# After an overnight incubation, membranes are rinsed in TBST then treated for 1 h with a peroxidase-linked secondary antibody. […] Optical densities of the protein bands are quantitated by laser scanning densitometry (LICE, Bromma, Sweden), and normalized to the densities of those bands generated under control conditions. […]
# Abeta = experiment: Total Abeta media concentration in CHO cells transfected with human APP gene construct; format: cell-based, Chinese Hamster; set-up: unit of the concentration uncertain
# Source text: FIG. 3. Effect of Varying Concentrations of Resveratrol on Total Abeta Media Concentration in CHO Cells Transfected with Human APP Gene Construct at Four Hours.
structure (smiles),measurement,setting,value
"CCCCC[C@H](O)/C=C/[C@H]1[C@H](O)CC(=O)[C@@H]1C/C=C\CCCC(=O)O [PGE2, prostaglandin E2]",increase in APPh levels compared to controls,"APP holoprotein; 50 μM prostaglandin E2 alone, cultured astrocytes, two experiments",~75%
same,increase in APPh levels,"APP holoprotein; PGE2 alone, cultured astrocytes (FIG. 4)",three-fold
same,cAMP levels over basal (control),"cAMP; PGE2 50 M alone, 10-day old cortical neurons",about 1.6 fold
same,amounts of astrocytic APP mRNA (4.5 kb) relative to untreated cells,APP mRNA,significantly increases
same,APP secreted in the media (110-130 kD),"soluble APP (APPs); 1, 10 or 100 μM, 24 h",also increased
Cc1c(C(=O)c2cccc3ccccc23)c2cccc3c2n1[C@H](CN1CCOCC1)CO3 [WIN55212-2],effect on APPh levels in the absence of PGE2,"APP holoprotein; 100 µM, cultured astrocytes",no statistically significant effect
same,increase in APPh levels with PGE2 stimulation,"APP holoprotein; WIN55212-2 100 M added to PGE2, cultured astrocytes",limited to two-fold
"CCCCC/C=C\C/C=C\C/C=C\C/C=C\CCCC(=O)N[C@H](C)CO [Methanandamide, methanandamide]",effect on PGE2-stimulated APPh levels,"APP holoprotein; 10 M methanandamide compared with 50 μM anandamide, cultured astrocytes",more efficacious than anandamide
same,effect on basal cAMP levels,cAMP; 10 (unit uncertain),no effect on basal levels
same,effect on PGE2-stimulated cAMP levels,cAMP; 10 M with PGE2 50 M,inhibit the PGE2-induced increase in cAMP levels
Oc1ccc(C=Cc2cc(O)cc(O)c2)cc1 [resveratrol],Abeta levels in the media,"Abeta; 100 (unit uncertain), four-hour treatment",decrease to about half
same,Abeta levels in the media,"Abeta; lower concentrations (0.1, 1.0, 10 (unit uncertain)), four hours",not to differ from control
same,decrease in APP holoprotein,"APP holoprotein; 10 μM (so in the source) and intermediate concentrations, one hour, astrocytes, p<0.05",significant decrease
same,levels of cellular amyloidogenic APP holoprotein,"APP holoprotein; 10 μM and higher, one hour, astrocytes, p<0.05",decreased to about half
same,stimulation of APPs,"soluble APP (APPs); 10 nM and intermediate concentrations, one hour",Significant stimulation
same,formation of soluble APP (APPs) over control,"soluble APP (APPs); 10 μM and higher, one hour, average of four experiments, p<0.05",about two-fold over control
CCCCC/C=C\C/C=C\C/C=C\C/C=C\CCCC(=O)NCCO [anandamide],increase in APPh levels over control in presence of PGE2,"APP holoprotein; 50 μM anandamide with 50 μM prostaglandin E2, cultured astrocytes",about 55%
same,basal APPh levels (compound by itself),"APP holoprotein; 50 µM, without PGE2, cultured astrocytes",reduce APPh levels below control values
same,effect on PGE2-stimulated cAMP levels,cAMP; 50 µM with PGE2 50 M,suppress the PGE2-induced stimulation
same,effect on basal cAMP levels,cAMP; 50 (unit uncertain),no effect on basal levels
